The results in this text go back to ChEMBL document CHEMBL1149529 (Bioorg Med Chem Lett, 2007).

Data set [1] is described as follows: Clearance in rat at 5 mg/kg, iv. Particulars: in vivo. It counts as ADME, organism-based. Also noted: dose 5 mg/kg, route intravenous.
Data set [2] is described as follows: Oral bioavailability in rat at 15 mg/kg, po. It is filed as ADME, organism-based. The settings on record: in vivo.

As for `Cc1c(CN(C)C[C@@H](O)c2ccccn2)sc2c(=O)c(C(=O)NCc3ccc(Cl)cc3)cn(C)c12`, the clearance in data set [1] was 23.3 mL/min/kg. Also, in data set [2], the bioavailability was 30%.
Turning to `Cc1c(CN(C)C[C@@H](O)c2ncccn2)sc2c(=O)c(C(=O)NCc3ccc(F)cc3)cn(C)c12`, the clearance in data set [1] is 35 mL/min/kg. Further, the bioavailability in data set [2] came out at 29%.
For `CN(CC1=CC2C(=O)C(C(=O)NCc3ccc(Cl)cc3)=CN(C)C2S1)C[C@@H](O)c1ccccn1` (stereo partly specified), the clearance in data set [1] is 46.7 mL/min/kg. The bioavailability in data set [2] amounted to 45%.
